Laboratory results as given in US8486996B2, “Aroylfuranes and aroylthiophenes” (Basilea Pharmaceutica AG, priority 2006, dated 2013).
Where two headings read alike, the source gives them in different places.

Columns and labels:
Format in all cases: cell-based
tumor cells [1] = experiment: MTS proliferation assay (72 h read-out)
In short: (§1)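 Viability was read by MTS absorbance at 492 nm after 3 h with reagent. Before that, cells plated a day earlier at 1.5×10^3–10^4 per well had been incubated with test compound at final concentrations of 0.001–10 μM for 72 h; activity is given as category scores A–D.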

[2] = MTS proliferation assay (72 h read-out); conditions: MRC5 cells
In short: as §1

tumor cells [3] = experiment: Hoechst 33342 nuclear staining (48 h read-out)
In short: (§2)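 Adherent cells pre-spread 24 h before dosing, suspension cells dosed at seeding; compounds at 0.001 μM-10 μM final, 48 h at culture conditions. Hoechst 33342 (2-5 μg/ml) added for 30 min, then fluorescence microscopy scoring of apoptotic nuclear fraction and apoptosis-specific morphology, reported as scores A-D.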

[4] = Hoechst 33342 nuclear staining (48 h read-out)
In short: as §2

tumor cells [5] = experiment: Mitochondrial membrane potential, JC-1 (read-out 48 h); conditions: JC-1, 48 h
In short: (§3)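 Tumor cells were treated with test compounds (adherent cells after 24 h of attachment, suspension cells immediately), medium holding up to 5% DMSO. After 48 h, JC-1 (2-5 μg/ml in added medium) was applied for 30 min. Fluorescence microscopy (FITC/TRITC filters) scored the fraction of cells with dissipated mitochondrial membrane potential as categories A-D.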

[6] = as above; conditions: PBL, JC-1, 48 h
In short: as §3

[7] = HT1080 cells, read-out: MTS proliferation assay IC50, HT1080
[8] = HeLa cells, read-out: MTS proliferation assay IC50, HeLa
[9] = Jily cells, read-out: MTS proliferation assay IC50, Jily
[10] = Jurkat cells, read-out: MTS proliferation assay IC50, Jurkat
[11] = HeLa cells, read-out: Hoechst 33342 nuclear staining EC50, HeLa
[12] = Jily cells, read-out: Hoechst 33342 nuclear staining EC50, Jily
[13] = Jurkat cells, read-out: Hoechst 33342 nuclear staining EC50, Jurkat
[14] = MRC5 cells, read-out: Hoechst 33342 nuclear staining EC50, MRC5
[15] = PBL, read-out: Hoechst 33342 nuclear staining EC50, PBL
[16] = HeLa cells, read-out: Mitochondrial membrane potential (read-out 48 h) HeLa
[17] = Jily cells, read-out: Mitochondrial membrane potential (read-out 48 h) Jily
[18] = Jurkat cells, read-out: Mitochondrial membrane potential (read-out 48 h) Jurkat
[19] = MCF7 cells, read-out: Mitochondrial membrane potential (read-out 48 h) MCF7
[20] = Homo sapiens, HT-1080, HT1080 cells, read-out: MTS proliferation assay IC50, HT1080
[21] = Homo sapiens, HeLa cells, read-out: MTS proliferation assay IC50, HeLa
[22] = Homo sapiens, Jurkat cells, read-out: MTS proliferation assay IC50, Jurkat
[23] = Homo sapiens, HeLa cells, read-out: Hoechst 33342 nuclear staining EC50, HeLa
[24] = Homo sapiens, Jurkat cells, read-out: Hoechst 33342 nuclear staining EC50, Jurkat
[25] = Homo sapiens, MRC5 cells, read-out: Hoechst 33342 nuclear staining EC50, MRC5
[26] = Homo sapiens, HeLa cells, read-out: Mitochondrial membrane potential (read-out 48 h) HeLa
[27] = Homo sapiens, Jurkat cells, read-out: Mitochondrial membrane potential (read-out 48 h) Jurkat
[28] = Homo sapiens, MCF7 cells, read-out: Mitochondrial membrane potential (read-out 48 h) MCF7

Row | SMILES | IC50 (tumor cells [1]; [7]) | IC50 (tumor cells [1]; [8]) | IC50 (tumor cells [1]; [9]) | IC50 (tumor cells [1]; [10]) | IC50 [2] | EC50 (tumor cells [3]; [11]) | EC50 (tumor cells [3]; [12]) | EC50 (tumor cells [3]; [13]) | EC50 [4, 14] | EC50 [4, 15] | EC50 (tumor cells [5]; [16]) | EC50 (tumor cells [5]; [17]) | EC50 (tumor cells [5]; [18]) | EC50 (tumor cells [5]; [19]) | EC50 [6] | also measured
1 | Nc1c(C(=O)c2ccccc2OCCN2CCOCC2)oc2ccc(Cl)cc12 [Example 10] | > 1 µM | > 1 µM | > 1 µM | > 1 µM | > 1 µM | > 1 µM | > 1 µM | > 1 µM | > 1 µM | > 1 µM | > 1 µM | > 1 µM | > 1 µM | > 1 µM | > 1 µM | –
2 | C=CCOc1ccc2oc(C(=O)c3cc(F)ccc3OCC)cc2c1 [Example 67] | 0.1 to 1 µM | 0.01 to 0.1 µM | < 0.01 µM | – | 0.01 to 0.1 µM | 0.1 to 1 µM | 0.01 to 0.1 µM | 0.01 to 0.1 µM | > 1 µM | > 1 µM | 0.1 to 1 µM | 0.01 to 0.1 µM | 0.01 to 0.1 µM | > 1 µM | > 1 µM | –
3 | COc1ccc(OC)c(C(=O)c2oc3ccccc3c2O)c1 [Reference Example A, 2-(2,5-dimethoxybenzoyl)-3-hydroxybenzofuran, reference compound] | – | – | > 1 µM | – | – | – | > 1 µM | – | – | > 1 µM | – | > 1 µM | – | – | > 1 µM | IC50 (tumor cells [1]; [20]): > 1 µM; IC50 (tumor cells [1]; [21]): > 1 µM; IC50 (tumor cells [1]; [22]): > 1 µM; IC50 ([2]; Homo sapiens): > 1 µM; EC50 (tumor cells [3]; [23]): > 1 µM; EC50 (tumor cells [3]; [24]): > 1 µM; EC50 [4, 25]: > 1 µM; EC50 (tumor cells [5]; [26]): > 1 µM; EC50 (tumor cells [5]; [27]): > 1 µM; EC50 (tumor cells [5]; [28]): > 1 µM
4 | COc1ccc2oc(C(=O)c3cccnc3-n3ccnc3)cc2c1 [Example 90] | > 1 µM | > 1 µM | > 1 µM | > 1 µM | > 1 µM | > 1 µM | > 1 µM | > 1 µM | > 1 µM | > 1 µM | > 1 µM | > 1 µM | > 1 µM | > 1 µM | > 1 µM | –
5 | CCOc1ccccc1C(=O)c1oc2c(C)cccc2c1N [Example 5, 3-Amino-7-methyl-2-(2-ethoxybenzoyl)-benzofuran] | – | – | 0.1 to 1 µM | – | – | – | > 1 µM | – | – | > 1 µM | – | > 1 µM | – | – | > 1 µM | IC50 (tumor cells [1]; [20]): > 1 µM; IC50 (tumor cells [1]; [21]): > 1 µM; IC50 (tumor cells [1]; [22]): 0.1 to 1 µM; IC50 ([2]; Homo sapiens): > 1 µM; EC50 (tumor cells [3]; [23]): > 1 µM; EC50 (tumor cells [3]; [24]): 0.1 to 1 µM; EC50 [4, 25]: > 1 µM; EC50 (tumor cells [5]; [26]): > 1 µM; EC50 (tumor cells [5]; [27]): 0.1 to 1 µM; EC50 (tumor cells [5]; [28]): > 1 µM
6 | CN1CCN(c2ncccc2C(=O)c2oc3ccc(Cl)cc3c2N)CC1 [Example 85] | > 1 µM | > 1 µM | 0.1 to 1 µM | 0.1 to 1 µM | > 1 µM | > 1 µM | 0.1 to 1 µM | 0.1 to 1 µM | > 1 µM | > 1 µM | > 1 µM | 0.1 to 1 µM | 0.1 to 1 µM | > 1 µM | > 1 µM | –
7 | CCOc1ccc(F)cc1C(=O)c1oc2ccc(OC)cc2c1NS(=O)(=O)N(C)C [Example 50] | > 1 µM | > 1 µM | 0.1 to 1 µM | 0.1 to 1 µM | > 1 µM | > 1 µM | 0.1 to 1 µM | 0.1 to 1 µM | > 1 µM | > 1 µM | > 1 µM | > 1 µM | 0.1 to 1 µM | > 1 µM | > 1 µM | –
8 | COc1ccc2oc(C(=O)c3cccnc3N3CC=CCC3)cc2c1 [Example 88] | < 0.01 µM | 0.01 to 0.1 µM | < 0.01 µM | < 0.01 µM | < 0.01 µM | 0.1 to 1 µM | 0.1 to 1 µM | 0.1 to 1 µM | 0.1 to 1 µM | > 1 µM | 0.01 to 0.1 µM | 0.01 to 0.1 µM | 0.01 to 0.1 µM | 0.01 to 0.1 µM | > 1 µM | –
9 | CCOc1ccc2oc(C(=O)c3cc(F)ccc3N3CCOCC3)cc2c1 [Example 108] | 0.01 to 0.1 µM | 0.01 to 0.1 µM | 0.01 to 0.1 µM | 0.01 to 0.1 µM | 0.01 to 0.1 µM | 0.01 to 0.1 µM | 0.01 to 0.1 µM | 0.01 to 0.1 µM | 0.01 to 0.1 µM | > 1 µM | 0.1 to 1 µM | 0.01 to 0.1 µM | 0.01 to 0.1 µM | 0.1 to 1 µM | > 1 µM | –
10 | CCOc1ccc(F)cc1C(=O)c1sc2ncccc2c1N [Example 113, 3-Amino-2-(2′-ethoxy-5-fluorobenzoyl)-thieno[2,3-b]pyridine] | – | – | 0.1 to 1 µM | – | – | – | 0.1 to 1 µM | – | – | > 1 µM | – | 0.1 to 1 µM | – | – | > 1 µM | IC50 (tumor cells [1]; [20]): > 1 µM; IC50 (tumor cells [1]; [21]): 0.1 to 1 µM; IC50 (tumor cells [1]; [22]): 0.1 to 1 µM; IC50 ([2]; Homo sapiens): > 1 µM; EC50 (tumor cells [3]; [23]): 0.1 to 1 µM; EC50 (tumor cells [3]; [24]): 0.1 to 1 µM; EC50 [4, 25]: > 1 µM; EC50 (tumor cells [5]; [26]): > 1 µM; EC50 (tumor cells [5]; [27]): 0.1 to 1 µM; EC50 (tumor cells [5]; [28]): > 1 µM
11 | CCOc1ccc(F)cc1C(=O)c1oc2ccc(C)cc2c1N [Example 62] | < 0.01 µM | 0.01 to 0.1 µM | < 0.01 µM | < 0.01 µM | < 0.01 µM | 0.01 to 0.1 µM | < 0.01 µM | < 0.01 µM | > 1 µM | > 1 µM | 0.01 to 0.1 µM | < 0.01 µM | < 0.01 µM | > 1 µM | > 1 µM | –
12 | CCOc1ccc(F)cc1C(=O)c1cc2cc(CN(CC)CC)ccc2o1 [Example 74] | > 1 µM | > 1 µM | > 1 µM | – | > 1 µM | > 1 µM | > 1 µM | > 1 µM | > 1 µM | > 1 µM | > 1 µM | > 1 µM | > 1 µM | > 1 µM | > 1 µM | –
13 | Nc1c(C(=O)c2ccccc2OCc2ccccc2)oc2ccc(Cl)cc12 [Example 1, 3-Amino-5-chloro-2-(2-benzyloxybenzoyl)-benzofuran] | – | – | 0.1 to 1 µM | – | – | – | > 1 µM | – | – | > 1 µM | – | > 1 µM | – | – | > 1 µM | IC50 (tumor cells [1]; [20]): > 1 µM; IC50 (tumor cells [1]; [21]): > 1 µM; IC50 ([2]; Homo sapiens): > 1 µM; EC50 (tumor cells [3]; [23]): > 1 µM; EC50 (tumor cells [3]; [24]): > 1 µM; EC50 [4, 25]: > 1 µM; EC50 (tumor cells [5]; [26]): > 1 µM; EC50 (tumor cells [5]; [27]): 0.1 to 1 µM; EC50 (tumor cells [5]; [28]): > 1 µM
14 | CCOc1ccccc1C(=O)c1oc2ccccc2c1N [Example 55] | 0.1 to 1 µM | 0.1 to 1 µM | 0.01 to 0.1 µM | 0.01 to 0.1 µM | 0.1 to 1 µM | > 1 µM | 0.1 to 1 µM | 0.1 to 1 µM | > 1 µM | > 1 µM | > 1 µM | 0.01 to 0.1 µM | 0.1 to 1 µM | 0.1 to 1 µM | > 1 µM | –
15 | Nc1c(C(=O)c2cc(F)ccc2N2CCCCC2)oc2ccc(Cl)cc12 [Example 100] | 0.01 to 0.1 µM | 0.1 to 1 µM | 0.01 to 0.1 µM | 0.01 to 0.1 µM | 0.01 to 0.1 µM | 0.1 to 1 µM | 0.1 to 1 µM | 0.01 to 0.1 µM | 0.1 to 1 µM | > 1 µM | 0.1 to 1 µM | 0.01 to 0.1 µM | 0.01 to 0.1 µM | 0.1 to 1 µM | > 1 µM | –
16 | CN(C)c1ncccc1C(=O)c1oc2ccc(Cl)cc2c1N [Example 77] | > 1 µM | > 1 µM | 0.1 to 1 µM | – | > 1 µM | > 1 µM | 0.1 to 1 µM | 0.1 to 1 µM | > 1 µM | > 1 µM | > 1 µM | 0.1 to 1 µM | 0.1 to 1 µM | > 1 µM | > 1 µM | –
17 | COc1ccccc1C(=O)c1oc2ccc(Cl)cc2c1N [Ref B, reference compound] | 0.1 to 1 µM | 0.1 to 1 µM | 0.1 to 1 µM | 0.1 to 1 µM | 0.1 to 1 µM | > 1 µM | 0.1 to 1 µM | 0.1 to 1 µM | > 1 µM | > 1 µM | > 1 µM | 0.1 to 1 µM | 0.1 to 1 µM | > 1 µM | 0.1 to 1 µM | –
